Reference: US7395112B2, “Method and apparatus for treating tumors using low strength electric fields” (priority 2002, dated 2008)

System: B16-F10.9 melanoma
Test: LEFCT-EC in mice bearing subcutaneous B16-F10.9 melanoma
Type: in vivo, C57BL/6 mice
Conditions: for Tumor size (mean ± standard error): 7 days after treatment
Method: Animals: C57BL/6 male mice were obtained from the breeding colony of Tel-Aviv University, Israel. Mice were used at 8-12 weeks of age. Animal care and experimentation was carried out in accordance with Tel-Aviv University guidelines.
Melanoma tumor cell line: The highly metastatic, poorly immunogenic B16-F10.9 (F10.9) subclone of the B16 melanoma cell line was used to generate melanoma tumors in mice (Eisenbach L. et al., 1984. Int J Cancer 34:567). Cells were maintained in DMEM supplemented with 100 U/ml penicillin, 100 μg/ml streptomycin, 4 mM glutamine, 1 mM sodium pyruvate, 1% non-essential amino acids and 10% heat-inactivated fetal calf serum (FCS); and were cultured at 37° C. in a humidified incubator in an atmosphere of 7% carbon dioxide and 93% air.
Tumor generation protocol: F10.9 tumors were induced in C57BL/6 mice by subcutaneous injection of 2×10^5 F10.9 cells. Mice were subjected to experimental treatments once tumors reached 5 mm in diameter (about 60-70 mm^3). Chemotherapeutic drugs: The following chemotherapeutic drugs used were: cis-platinum (II) diamminedichloride (cisplatin; #P-4394, Sigma, Israel), dissolved in PBS for injections; Taxol (Mead Johnson Oncology Products, A Bristol-Myers Squibb, USA), obtained as a sterile nonpyrogenic solution containing 6 mg/ml paclitaxel, 527 mg/ml of purified Cremophor EL (polyoxyethylated castor oil) and 5-FU (Abic, Israel).
Low-strength electric field enhanced cancer therapy protocol: Mice were subjected to a single treatment of LEFCT-EC, once tumors reached 5 mm in diameter (11-17 days following tumor cell inoculation). Volumes of up to 100 μl of chemotherapeutic agents were injected into tumor loci, and exposures to electric fields were carried out 3-4 min following intratumoral injection of chemotherapeutic agents. To expose tumors to electric fields, stainless steel electrode needles (Karlsbader insect pins No 0. BioQuip Products, USA) soldered at their brassy ends with thin isolated copper wires were used. Electrodes were inserted to a depth of about 7 mm percutaneously into and in the immediate vicinity of the tumor; one cathode needle in the center of the tumor and three peripheral anodes, at a distance of about 5 mm from the cathode. The needles were connected to an electric pulse generator (Grass S48 Stimulator, USA). The field strength applied was about 40 V/cm; the repetition frequency, 500 Hz; and the pulse width, 180 μs. All mice were anesthetized prior to LEF treatment.
Statistical analysis: Statistical analysis of survival times (Kaplan-Meir test), survival comparisons between groups (Mantel-Cox test) and tumor volume differences between groups (Kolmogorov-Smirnov test) were performed using StatSoft Statistica statistical software. The 10-15% mortality rate in the 5 days following LEF or LEF-chemotherapy was considered as treatment-caused, therefore such cases of mortality were excluded.
Tumor volume determination: performed as described above in Example 1 of the Examples section.

bleomycin
Tumor size (mean ± standard error) (LEF-CT (drug + LEF), cisplatin 4 mg/kg, bleomycin 8 U/kg, 5-FU 150 mg/kg, taxol 20 mg/kg): 573 ± 138 mm^3
mean survival time (MST) (LEF-chemotherapy: intratumoral drug + LEF about 40 V/cm 12 min, 120 days (cisplatin) or 180 days (taxol, bleomycin) after inoculation): 48 days
cure rate / animals alive and free of visible tumor (LEF-chemotherapy, 180 days after tumor inoculation): 8.2%
mean survival time (MST) (chemotherapy alone, intratumoral, no LEF): 34.3 days
Tumor size (mean ± standard error) (intratumoral drug injection alone, same doses): 2456 ± 220 mm^3
LEFCT-EC treated mice that died two months and later after treatment with pulmonary metastatic foci, free of primary tumor (pooled statement for cisplatin, taxol or bleomycin): About 10%
MST (route comparison: bleomycin 8 U/kg intraperitoneally + LEF): 34.6 days
MST (route comparison: bleomycin 8 U/kg intratumorally + LEF): 46.6 days
animals alive (route comparison: bleomycin 8 U/kg intratumorally + LEF, 180 days after tumor inoculation): 5%
